Holding throughout (assay type): biochemical
One experiment has as its target T1, Recombinant human TRKA (Homo sapiens, UniProt P04629).
T1 construct: purchased Carna Biosciences
Put plainly: In vitro activity test on TRKA kinase (HTRF KinEASE TK). The conditions noted are these: 14.68 μM ATP, 40 min. In a few lines:
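Reaction: 0.2 ng/μL TRKA, 1 μM biotinylated TK substrate, 14.68 μM ATP, 5 mM MgCl2, 1 mM DTT, 1% DMSO, 40 min at room temperature. Compounds tested at 1 μM to 0.05 nM (10-point, 3-fold, duplicate). HTRF 665/620 ratio converted to % inhibition versus no-compound control; IC50 by 4-parameter fit.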

A further experiment addresses T2, Recombinant human TRKB (Homo sapiens, UniProt Q16620).
T2 construct: purchased Carna Biosciences
Put plainly: In vitro activity test on TRKB kinase (HTRF KinEASE TK). The conditions noted are these: 4.77 μM ATP, 50 min. In a few lines:
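Recombinant human TRKB (0.037 ng/μL) phosphorylated 1 μM biotinylated TK substrate at 4.77 μM ATP, 5 mM MgCl2, 1% DMSO, 50 min at room temperature; compounds 1 μM–0.05 nM. HTRF KinEASE detection overnight; 665/620 ratio converted to inhibition and IC50 from 4-parameter fit.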

A further experiment deals with T3, Recombinant human TRKC (Homo sapiens, UniProt Q16288).
T3 construct: purchased Carna Biosciences
T3 sequence (Q16288 32-839): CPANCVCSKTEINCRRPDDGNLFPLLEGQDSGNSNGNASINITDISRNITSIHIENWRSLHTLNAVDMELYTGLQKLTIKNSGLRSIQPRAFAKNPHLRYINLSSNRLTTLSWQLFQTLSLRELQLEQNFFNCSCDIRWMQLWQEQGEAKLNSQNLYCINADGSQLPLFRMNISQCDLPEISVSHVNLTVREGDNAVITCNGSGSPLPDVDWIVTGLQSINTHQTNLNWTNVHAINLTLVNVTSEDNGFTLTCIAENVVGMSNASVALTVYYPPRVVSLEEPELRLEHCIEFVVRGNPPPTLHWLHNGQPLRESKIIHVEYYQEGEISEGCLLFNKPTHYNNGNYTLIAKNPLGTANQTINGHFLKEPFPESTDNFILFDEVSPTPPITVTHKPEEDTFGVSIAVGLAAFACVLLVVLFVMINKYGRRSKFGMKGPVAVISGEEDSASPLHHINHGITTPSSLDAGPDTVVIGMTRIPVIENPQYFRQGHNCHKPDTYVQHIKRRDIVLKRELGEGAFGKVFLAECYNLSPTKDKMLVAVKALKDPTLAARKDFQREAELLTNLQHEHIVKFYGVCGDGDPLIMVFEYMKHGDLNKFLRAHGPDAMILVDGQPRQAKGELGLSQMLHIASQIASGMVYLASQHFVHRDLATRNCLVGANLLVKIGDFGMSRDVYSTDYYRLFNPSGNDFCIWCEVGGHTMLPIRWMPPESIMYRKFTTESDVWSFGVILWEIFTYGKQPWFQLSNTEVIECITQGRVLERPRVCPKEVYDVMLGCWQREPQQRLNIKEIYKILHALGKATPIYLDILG
Put plainly: In vitro activity test on TRKC kinase (HTRF KinEASE TK). The conditions noted are these: 25.64 μM ATP, 40 min. In outline:
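Recombinant human TRKC (0.037 ng/μL) with 1 μM biotinylated TK substrate, 25.64 μM ATP, 5 mM MgCl2, 1 mM DTT, 40 min at room temperature; compound 1 μM to 0.05 nM, 1% DMSO. HTRF 665/620 ratio after overnight detection; IC50 from 4-parameter fit.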

Experiment [1] concerns the target T4, recombinant human TRKA (G595R) (Homo sapiens, UniProt P04629, G595R).
T4 construct: purchased SignalChem
Briefly: In vitro activity test on mutant TRKA (G595R) (HTRF KinEASE TK). The conditions noted are these: 4.5 μM ATP, 30 min. In a few lines: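 HTRF KinEASE TK format: 0.12 ng/μL recombinant TRKA (G595R), 1 μM biotinylated TK substrate, 4.5 μM ATP, 5 mM MgCl2, 1 mM DTT, 1% DMSO, 30 min at room temperature; detection overnight. IC50 from 10-point 4-fold series (1 μM to 0.004 nM, duplicates), 665/620 ratio, 4-parameter fit.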

The target of experiment [2] is T5, recombinant human TRKA (G667C) (Homo sapiens, UniProt P04629, G667C).
T5 construct: purchased SignalChem
T5 sequence (P04629 33-796 G667C): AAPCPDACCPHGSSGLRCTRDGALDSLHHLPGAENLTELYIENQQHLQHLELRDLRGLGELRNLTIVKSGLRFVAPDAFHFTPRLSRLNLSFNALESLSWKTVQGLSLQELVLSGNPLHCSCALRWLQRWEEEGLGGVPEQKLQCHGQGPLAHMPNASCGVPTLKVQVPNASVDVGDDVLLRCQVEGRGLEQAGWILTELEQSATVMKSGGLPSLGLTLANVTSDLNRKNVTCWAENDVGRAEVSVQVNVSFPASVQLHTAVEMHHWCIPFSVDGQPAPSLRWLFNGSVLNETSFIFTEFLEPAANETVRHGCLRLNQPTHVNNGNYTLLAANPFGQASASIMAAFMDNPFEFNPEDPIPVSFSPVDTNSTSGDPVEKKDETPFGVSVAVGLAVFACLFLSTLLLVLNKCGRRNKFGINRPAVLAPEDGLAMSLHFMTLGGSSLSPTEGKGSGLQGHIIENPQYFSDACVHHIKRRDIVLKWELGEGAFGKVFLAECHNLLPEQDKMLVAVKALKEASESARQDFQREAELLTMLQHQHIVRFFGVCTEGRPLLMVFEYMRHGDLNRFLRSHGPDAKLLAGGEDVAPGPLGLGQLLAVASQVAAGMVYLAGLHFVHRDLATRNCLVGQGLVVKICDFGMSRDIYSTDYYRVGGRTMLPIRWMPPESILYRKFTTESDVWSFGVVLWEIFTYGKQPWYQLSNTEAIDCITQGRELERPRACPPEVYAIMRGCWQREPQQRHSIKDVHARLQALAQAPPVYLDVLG
Put plainly: In vitro activity test on mutant TRKA (G667C) (HTRF KinEASE TK). The settings on record: 5.5 μM ATP, 30 min. On the procedure:
Biological Test Example 2 In Vitro Activity Test on Mutant TRKA (G595R), TRKA (G667C) and TRKC (G623R)
The recombinant human TRKA (G595R), TRKA (G667C) and TRKC (G623R) proteins were purchased from SignalChem. HTRF kinEASE TK kit was purchased from CisbioBioassays. Synergy Neo 2 of Biotek was used to read the plate.
The tested compound was subjected to 4-fold serial dilution to reach a final concentration of 1 μM to 0.004 nM (10 concentrates), duplicates for each concentration; and 1% DMSO was present in the detection reaction.
0.026 ng/μL TRKA (G667C) kinase, 1 μM TK Substrate-biotin polypeptide substrate, 5.5 μm ATP, 1× enzymatic buffer, 5 mM MgCl2, and 1 mM DTT. The detection plate was White Proxiplate 384-Plus plate (PerkinElmer), and incubated at room temperature for 30 min, the assay volume was 10 μL.
10 μL of detection reagent was added to the plate (containing 0.125 μM SA-XL665 and 5 μL 1×TK-Antibody) and incubated overnight at room temperature, and Synergy Neo 2 was used to read the plate.
The value of 665/620 Ratio minus the value of negative control wells without enzyme, then the obtained value was converted according to the following formula into inhibition rate (%)=(1−Ratiotest/Ratiomax)×100%. Ratiomax was a positive control without tested compound, and Ratiotest was the value of each concentration of different compounds. IC50 (nM) data was obtained by 4 parameter curve fitting (see Table 1).

T1 sequence (P04629 33-796): as the sequence (P04629 33-796 G667C) above, with C635G counted along it
T2 sequence (Q16620 32-822): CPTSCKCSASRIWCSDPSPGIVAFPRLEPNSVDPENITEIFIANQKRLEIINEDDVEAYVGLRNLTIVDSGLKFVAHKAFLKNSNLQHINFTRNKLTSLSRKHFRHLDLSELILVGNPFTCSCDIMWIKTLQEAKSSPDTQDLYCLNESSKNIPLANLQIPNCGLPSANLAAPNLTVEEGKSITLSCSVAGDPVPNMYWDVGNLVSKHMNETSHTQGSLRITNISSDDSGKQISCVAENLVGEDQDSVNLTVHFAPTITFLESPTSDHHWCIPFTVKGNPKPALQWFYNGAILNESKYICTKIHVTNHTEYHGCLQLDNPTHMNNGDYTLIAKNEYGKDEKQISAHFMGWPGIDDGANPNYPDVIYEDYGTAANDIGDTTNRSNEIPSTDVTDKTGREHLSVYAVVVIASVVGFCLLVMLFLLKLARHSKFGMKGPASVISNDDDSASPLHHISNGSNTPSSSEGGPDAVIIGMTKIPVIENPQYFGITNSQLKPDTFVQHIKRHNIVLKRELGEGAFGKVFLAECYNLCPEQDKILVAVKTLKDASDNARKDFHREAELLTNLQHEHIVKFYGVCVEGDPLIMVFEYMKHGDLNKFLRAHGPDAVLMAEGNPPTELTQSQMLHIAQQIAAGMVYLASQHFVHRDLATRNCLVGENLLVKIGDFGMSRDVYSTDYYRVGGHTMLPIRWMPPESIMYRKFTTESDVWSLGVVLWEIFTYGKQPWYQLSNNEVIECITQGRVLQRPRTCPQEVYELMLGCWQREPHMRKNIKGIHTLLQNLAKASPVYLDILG
T4 sequence (P04629 33-796 G595R): as the sequence (P04629 33-796 G667C) above, with G563R, C635G counted along it

In the case of `COc1ccc(F)cc1[C@H]1CCCN1c1ccc2ncc(Cl)c(-c3cnn(C4CCNCC4)c3)c2n1` [Example 33, (R)-7-chloro-2-(2-(5-fluoro-2-methoxyphenyl)pyrrolidin-1-yl)-8-(1-(piperidin-4-yl)-1H-pyrazol-4-yl)-1,5-naphthyridine], the IC50 was less than 1 nM at Recombinant human TRKA; less than 10 nM on Recombinant human TRKB; less than 50 nM on Recombinant human TRKC; less than 10 nM in experiment [1]; less than 10 nM in experiment [2].

`Fc1ccc(F)c([C@H]2CCCN2c2ccc3ncc(F)c(-c4cnn(C5CNC5)c4)c3n2)c1` [Example 28, (R)-8-(1-(azetidin-3-yl)-1H-pyrazol-4-yl)-2-(2-(2,5-difluorophenyl)pyrrolidin-1-yl)-7-fluoro-1,5-naphthyridine]: the IC50 (at Recombinant human TRKA; at Recombinant human TRKB; at Recombinant human TRKC; in experiment [1]; in experiment [2]) was less than 10 nM in each case.

For the compound `NC(=O)c1ccnc2ccc(N3CCC[C@@H]3c3cc(F)ccc3F)nc12` [Example 10, (R)-6-(2-(2,5-difluorophenyl)pyrrolidin-1-yl)-1,5-naphthyridin-4-carboxamide], the IC50 was less than 1 nM on Recombinant human TRKA; less than 1 nM at Recombinant human TRKB; less than 1 nM on Recombinant human TRKC; less than 1 nM in experiment [1]; less than 100 nM in experiment [2].

Take `Fc1ccc(F)c([C@H]2C[C@H](F)CN2c2ccc3ncc(Cl)c(-c4ccn(C5CCNCC5)c4)c3n2)c1` [Example 48, 7-chloro-2-((2R,4S)-2-(2,5-difluorophenyl)-4-fluoropyrrolidin-1-yl)-8-(1-(piperidin-4-yl)-1H-pyrrol-3-yl)-1,5-naphthyridine]: the IC50 was less than 1 nM at Recombinant human TRKA; less than 1 nM at Recombinant human TRKB; less than 1 nM at Recombinant human TRKC; less than 10 nM in experiment [1]; less than 10 nM in experiment [2].

For the compound `OCCN1CCC(n2cc(-c3c(Cl)cnc4ccc(N5C[C@@H](F)C[C@@H]5c5cc(F)ccc5F)nc34)cn2)CC1` [Example 32, 2-(4-(4-(3-chloro-6-((2R,4S)-2-(2,5-difluorophenyl)-4-fluoropyrrolidin-1-yl)-1,5-naphthyridin-4-yl)-1H-pyrazol-1-yl)piperidin-1-yl)ethan-1-ol], the IC50 (on Recombinant human TRKA; at Recombinant human TRKB; on Recombinant human TRKC; in experiment [1]; in experiment [2]) was less than 1 nM in each case.

On to `CN1CCC(n2cc(-c3ccnc4ccc(N5C[C@@H](F)C[C@@H]5c5cc(F)ccc5F)nc34)cn2)CC1` [Example 13, 2-((2R,4S)-2-(2,5-difluorophenyl)-4-fluoropyrrolidin-1-yl)-8-(1-(1-methylpiperidin-4-yl)-1H-pyrazol-4-yl)-1,5-naphthyridine], for which the IC50 was less than 1 nM on Recombinant human TRKA; less than 1 nM at Recombinant human TRKB; less than 1 nM at Recombinant human TRKC; less than 1 nM in experiment [1]; less than 10 nM in experiment [2].

As to `Fc1ccc(F)c([C@H]2C[C@H](F)CN2c2ccc3ncc(Cl)c(-c4cnc(N5CCOCC5)s4)c3n2)c1` [Example 61, 4-(5-(3-chloro-6-((2R,4S)-2-(2,5-difluorophenyl)-4-fluoropyrrolidin-1-yl)-1,5-naphthyridin-4-yl)thiazol-2-yl)morpholine], the IC50 is less than 10 nM at Recombinant human TRKA; less than 50 nM on Recombinant human TRKB; less than 10 nM on Recombinant human TRKC; less than 50 nM in experiment [1]; less than 10 nM in experiment [2].

Turning to `Fc1ccc(F)c([C@H]2C[C@H](F)CN2c2ccc3ncc(F)c(-c4noc(C5CCNCC5)n4)c3n2)c1` [Example 73, 3-(6-((2R,4S)-2-(2,5-difluorophenyl)-4-fluoropyrrolidin-1-yl)-3-fluoro-1,5-naphthyridin-4-yl)-5-(piperidin-4-yl)-1,2,4-oxadiazole], the IC50 on Recombinant human TRKA is less than 1 nM; on Recombinant human TRKB, less than 10 nM; at Recombinant human TRKC it was less than 10 nM; in experiment [1], less than 10 nM; in experiment [2] it was less than 10 nM.

In the case of `O[C@H]1CCN(c2ncnc3ccc(N4C[C@@H](F)C[C@@H]4c4cc(F)ccc4F)nc23)C1` [Example 71, (S)-1-(6-((2R,4S)-2-(2,5-difluorophenyl)-4-fluoropyrrolidin-1-yl)pyrido[3,2-d]pyrimidine-4-yl)pyrrolidin-3-ol], the IC50 was less than 1 nM on Recombinant human TRKA; less than 1 nM on Recombinant human TRKB; less than 1 nM on Recombinant human TRKC; less than 1 nM in experiment [1]; less than 10 nM in experiment [2].

Turning to `Fc1ccc(F)c([C@H]2C[C@H](F)CN2c2ccc3ncc(Cl)c(-c4noc(C5CCNCC5)n4)c3n2)c1` [Example 51, 3-(3-Chloro-6-((2R,4S)-2-(2,5-difluorophenyl)-4-fluoropyrrolidin-1-yl)-1,5-naphthyridine-4-yl)-5-(piperidin-4-yl)-1,2,4-oxadiazole], the IC50 (on Recombinant human TRKA; at Recombinant human TRKB; at Recombinant human TRKC; in experiment [1]; in experiment [2]) was less than 1 nM throughout.

On to `O[C@H]1CCN(C(=S)Nc2ccnc3ccc(N4C[C@@H](F)C[C@@H]4c4cc(F)ccc4F)nc23)C1` [Example 79, (S)-N-(6-((2R,4S)-2-(2,5-difluorophenyl)-4-fluoropyrrolidin-1-yl)-1,5-naphthyridin-4-yl)-3-hydroxypyrrolidine-1-methylthioamide], for which the IC50 at Recombinant human TRKA was less than 1 nM; at Recombinant human TRKB, less than 1 nM; on Recombinant human TRKC, less than 1 nM; in experiment [1], less than 1 nM; in experiment [2] it was less than 10 nM.

`CC1(O)CC(n2cc(-c3c(Cl)cnc4ccc(N5C[C@@H](F)C[C@@H]5c5cc(F)ccc5F)nc34)cn2)C1` (stereo partly drawn) [Example 39, 3-(4-(3-chloro-6-((2R,4S)-2-(2,5-difluorophenyl)-4-fluoropyrrolidin-1-yl)-1,5-naphthyridin-4-yl)-1H-pyrazol-1-yl)-1-methylcyclobutan-1-ol]: the IC50 was less than 1 nM at Recombinant human TRKA; less than 1 nM on Recombinant human TRKB; less than 1 nM on Recombinant human TRKC; less than 10 nM in experiment [1]; less than 10 nM in experiment [2].

Consider `CC1(C)CC(n2cc(-c3ccnc4ccc(N5CCC[C@@H]5c5cc(F)ccc5F)nc34)cn2)CCN1` (stereo partly drawn) [Example 17, 2-((R)-2-(2,5-difluorophenyl)pyrrolidin-1-yl)-8-(1-(2,2-dimethylpiperidin-4-yl)-1H-pyrazol-4-yl)-1,5-naphthyridine], for which the IC50 was less than 1 nM on Recombinant human TRKA; less than 10 nM on Recombinant human TRKB; less than 10 nM on Recombinant human TRKC; less than 10 nM in experiment [1]; less than 50 nM in experiment [2].

As to `Fc1ccc(F)c([C@H]2C[C@H](F)CN2c2ccc3ncc(Cl)c(-c4cnn(C5CNC5)c4)c3n2)c1` [Example 22, 8-(1-(azetidine-3-yl)-1H-pyrazol-4-yl)-7-chloro-2-((2R,4S)-2-(2,5-difluorophenyl)-4-fluoropyrrolidin-1-yl)-1,5-naphthyridine], the IC50 (at Recombinant human TRKA; at Recombinant human TRKB; at Recombinant human TRKC; in experiment [1]; in experiment [2]) was less than 1 nM each time.

Take `Fc1ccc(F)c([C@H]2C[C@H](F)CN2c2ccc3ncnc(-c4cnn(C5CCNCC5)c4)c3n2)c1` [Example 46]: the IC50 (at Recombinant human TRKA; on Recombinant human TRKB; at Recombinant human TRKC; in experiment [1]; in experiment [2]) was less than 1 nM each time.

Source of the values: patent publication US20220017512A1 (SHANGHAI ENNOVABIO PHARMACEUTICALS CO., LTD., priority 2018, published 2022).
